Here are results for 64 molecules from ChEMBL document CHEMBL2157975 (Bioorg Med Chem Lett, 2012).

What is called IC50 is the concentration needed to halve the response being measured.

Experiment [1] addresses T1, Type-1 angiotensin II receptor (Homo sapiens, UniProt P30556).
T1 sequence (P30556 whole entry): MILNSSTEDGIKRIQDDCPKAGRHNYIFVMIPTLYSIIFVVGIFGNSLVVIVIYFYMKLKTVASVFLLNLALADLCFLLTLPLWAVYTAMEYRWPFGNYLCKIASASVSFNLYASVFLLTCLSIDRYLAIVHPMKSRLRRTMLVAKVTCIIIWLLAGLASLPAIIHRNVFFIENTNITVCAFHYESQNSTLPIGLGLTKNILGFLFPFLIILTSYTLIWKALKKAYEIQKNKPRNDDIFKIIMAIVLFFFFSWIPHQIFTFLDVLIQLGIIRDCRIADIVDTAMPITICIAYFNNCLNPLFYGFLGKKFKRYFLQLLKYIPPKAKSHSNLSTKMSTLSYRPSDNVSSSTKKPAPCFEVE
The experiment can be described thus: Inhibition of AT1 receptor.

In experiment [2] the target is T2, Apelin receptor (Homo sapiens, UniProt P35414).
T2 sequence (P35414 whole entry): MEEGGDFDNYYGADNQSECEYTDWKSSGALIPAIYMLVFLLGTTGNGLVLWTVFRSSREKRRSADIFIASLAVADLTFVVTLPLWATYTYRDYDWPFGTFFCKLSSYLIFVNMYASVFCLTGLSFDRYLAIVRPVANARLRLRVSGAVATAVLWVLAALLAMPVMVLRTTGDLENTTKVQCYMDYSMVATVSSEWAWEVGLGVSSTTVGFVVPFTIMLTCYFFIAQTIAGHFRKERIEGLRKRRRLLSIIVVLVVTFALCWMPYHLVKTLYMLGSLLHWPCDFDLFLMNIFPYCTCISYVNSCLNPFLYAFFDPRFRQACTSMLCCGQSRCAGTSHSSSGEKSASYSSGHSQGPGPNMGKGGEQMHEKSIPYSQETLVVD
The experiment can be described thus: Antagonist activity at APJ receptor expressed in CHOK1 cells assessed as inhibition of apelin13-induced beta-arrestin recruitment after 90 mins by luminescence assay. Format: functional, cell-based, CHO-K1. In general terms: Recruitment of arrestin is a read-out of receptor activation apart from second messengers.

Experiment [3] can be described thus: Selectivity ratio of IC50 for AT1 receptor to IC50 for APJ receptor (unknown receptor).

On to `O=C(Oc1coc(CSc2ncccn2)cc1=O)c1ccc(F)cc1`, for which the IC50 in experiment [1] and in experiment [2] was > 79 µM in each case.
With `O=C(Oc1coc(CSc2ncccn2)cc1=O)c1ccc(C(F)(F)F)cc1`, in experiment [1], the IC50 was > 79 µM.
Take `COc1ccc(SCc2cc(=O)c(OC(=O)c3ccc(Cl)c([N+](=O)[O-])c3)co2)cc1`: the Ratio IC50 in experiment [3] was > 9. The IC50 in experiment [1] was > 79 µM; in experiment [2], 8.27 µM.
As for `CCOc1ccc(C(=O)Oc2coc(CSc3ncccn3)cc2=O)cc1`, the IC50 in experiment [1] and in experiment [2] was > 79 µM in each case.
Take `Cc1ccnc(SCc2cc(=O)c(OC(=O)c3ccc(Cl)cc3)co2)n1`: the IC50 in experiment [1] and in experiment [2] was > 79 µM each time.
For `O=C(Oc1coc(CSc2ncccn2)cc1=O)c1ccccc1`, the 50% inhibitory concentration (IC50) in experiment [1] and in experiment [2] was > 79 µM each time.
Regarding `CN(C)S(=O)(=O)c1ccc(C(=O)Oc2coc(CSc3ncccn3)cc2=O)cc1`, the IC50 in experiment [1] and in experiment [2] was > 79 µM in each case.
Turning to `Cc1ccnc(SCc2cc(=O)c(OC(=O)c3ccc(F)cc3)co2)n1`, the IC50 in experiment [1] and in experiment [2] was > 79 µM throughout.
On to `Cc1ccnc(SCc2cc(=O)c(NC(=O)c3ccc([N+](=O)[O-])cc3)co2)n1`, for which the IC50 in experiment [1] and in experiment [2] was > 79 µM in each case.
As to `O=C(Oc1coc(CSc2ncccn2)cc1=O)c1ccc(S(=O)(=O)N2CCOCC2)cc1`, the IC50 in experiment [1] and in experiment [2] was > 79 µM each time.
Turning to `Cc1ccnc(SCc2cc(=O)c(OC(=O)c3ccc([N+](=O)[O-])o3)co2)n1`, the half-maximal inhibitory concentration (IC50) in experiment [1] and in experiment [2] was > 79 µM in each case.
With `O=C(Oc1coc(CSc2ncccn2)cc1=O)c1ccc(-c2ccccc2)cc1`, the IC50 in experiment [1] and in experiment [2] was > 79 µM each time.
With `Cc1c(C(=O)Oc2coc(CSc3ncccn3)cc2=O)cccc1[N+](=O)[O-]`, in experiment [1], the IC50 was > 79 µM.
Regarding `O=c1cc(CSc2ccccc2)occ1O`, the IC50 in experiment [1] and in experiment [2] was > 79 µM throughout.
Consider `CC(C)Oc1ccc(C(=O)Oc2coc(CSc3ncccn3)cc2=O)cc1`, for which the IC50 in experiment [1] and in experiment [2] was > 79 µM throughout.
`Cc1ccnc(SCc2cc(=O)c(OC(=O)c3ccco3)co2)n1`: the IC50 in experiment [1] and in experiment [2] was > 79 µM each time.
Take `Cc1cc(C)nc(SCc2cc(=O)c(O)co2)n1`: the IC50 in experiment [1] and in experiment [2] was > 79 µM each time.
With `O=C(Oc1coc(CSc2ccccc2)cc1=O)c1ccc(Cl)c([N+](=O)[O-])c1`, the Ratio IC50 in experiment [3] was > 8. For the same molecule, the IC50 was > 79 µM in experiment [1] and 9.61 µM in experiment [2].
On to `Cc1ccnc(SCc2cc(=O)c(OC(=O)C(C)(C)C)co2)n1`, for which the IC50 in experiment [1] and in experiment [2] was > 79 µM each time.
As to `O=C(Oc1coc(CSc2ncccn2)cc1=O)c1ccc(S(=O)(=O)N2CCCCC2)cc1`, the IC50 in experiment [1] and in experiment [2] was > 79 µM in each case.
For the molecule `CCCCOc1ccc(C(=O)Oc2coc(CSc3ncccn3)cc2=O)cc1`, the IC50 in experiment [1] and in experiment [2] was > 79 µM throughout.
Turning to `Cc1ccnc(SCc2cc(=O)c(OCc3ccccc3)co2)n1`, the IC50 in experiment [1] and in experiment [2] was > 79 µM each time.
`Cc1ccnc(SCc2cc(=O)c(OC(=O)c3cc([N+](=O)[O-])ccc3Cl)co2)n1`: the IC50 in experiment [1] is > 79 µM.
As to `Cc1ccnc(SCc2cc(=O)c(OC(=O)c3cnco3)co2)n1`, the IC50 in experiment [1] and in experiment [2] was > 79 µM each time.
As for `Cc1ccnc(SCc2cc(=O)c(NC(=O)c3ccccc3)co2)n1`, the IC50 in experiment [1] and in experiment [2] was > 79 µM throughout.
As for `COc1ccc(C(=O)Oc2coc(CSc3ncccn3)cc2=O)cc1`, the IC50 in experiment [1] and in experiment [2] was > 79 µM throughout.
As for `O=c1cc(CSc2ncccn2)occ1O`, the half-inhibitory concentration (IC50) in experiment [1] and in experiment [2] was > 79 µM throughout.
Consider `Cc1ccc(C(=O)Oc2coc(CSc3nccc(C)n3)cc2=O)cc1`, for which the IC50 in experiment [1] and in experiment [2] was > 79 µM throughout.
In the case of `Cc1ccnc(SCc2cc(=O)c(OC(=O)c3ccc([N+](=O)[O-])cc3)co2)n1`, the Ratio IC50 in experiment [3] is > 23. Besides, the IC50 in experiment [1] was > 79 µM.
On to `COc1ccc(C(=O)Oc2coc(CSc3nccc(C)n3)cc2=O)cc1`, for which the IC50 in experiment [1] and in experiment [2] was > 79 µM throughout.
As to `Cc1cc(C)nc(SCc2cc(=O)c(OS(=O)(=O)c3ccccc3)co2)n1`, the IC50 in experiment [1] and in experiment [2] was > 79 µM throughout.
`Cc1ccc(C(=O)Oc2coc(CSc3ncccn3)cc2=O)cc1C`: the IC50 in experiment [1] and in experiment [2] was > 79 µM throughout.
Consider `O=C(Oc1coc(CSc2ncccn2)cc1=O)c1ccc(Cl)cc1`, for which, in experiment [1], the IC50 is > 79 µM.
Regarding `CC(C)(C)c1ccc(C(=O)Oc2coc(CSc3ncccn3)cc2=O)cc1`, the IC50 in experiment [1] and in experiment [2] was > 79 µM in each case.
Turning to `Cc1ccnc(SCc2cc(=O)c(OC(=O)c3cccc(C#N)c3)co2)n1`, the IC50 in experiment [1] and in experiment [2] was > 79 µM each time.
Turning to `Cc1ccnc(SCc2cc(=O)c(OC(=O)c3ccc(OC(F)(F)F)cc3)co2)n1`, the IC50 in experiment [1] and in experiment [2] was > 79 µM in each case.
Consider `O=C(Oc1coc(CSc2ncccn2)cc1=O)c1cc(Cl)ccc1[N+](=O)[O-]`, for which the IC50 in experiment [1] and in experiment [2] was > 79 µM each time.
Regarding `Cc1cccc(C(=O)Oc2coc(CSc3nccc(C)n3)cc2=O)c1`, the IC50 in experiment [1] and in experiment [2] was > 79 µM throughout.
Regarding `COc1cc(C(=O)Oc2coc(CSc3ncccn3)cc2=O)c([N+](=O)[O-])cc1OC`, the IC50 in experiment [1] and in experiment [2] was > 79 µM in each case.
On to `O=C(Oc1coc(CSc2ncccn2)cc1=O)c1ccc(S(=O)(=O)N2CCCC2)cc1`, for which the IC50 in experiment [1] and in experiment [2] was > 79 µM throughout.
Consider `Cc1ccnc(SCc2cc(=O)c(OC(=O)c3ccc(C#N)cc3)co2)n1`, for which the Ratio IC50 in experiment [3] is > 7. The IC50 in experiment [1] was > 79 µM.
On to `Cc1ccnc(SCc2cc(=O)c(OC(=O)c3ccc(C)c([N+](=O)[O-])c3)co2)n1`, for which the Ratio IC50 in experiment [3] was > 17. Also, in experiment [1], the half-inhibitory concentration (IC50) is > 79 µM.
In the case of `CCN(CC)S(=O)(=O)c1ccc(C(=O)Oc2coc(CSc3ncccn3)cc2=O)cc1`, the IC50 in experiment [1] and in experiment [2] was > 79 µM each time.
Regarding `Cc1ccc(C(=O)Oc2coc(CSc3ncccn3)cc2=O)cc1[N+](=O)[O-]`, in experiment [3], the Ratio IC50 is > 11. Moreover, in experiment [1], the IC50 is > 79 µM.
As for `Cc1ccnc(SCc2cc(=O)c(OC(=O)c3cc(Cl)ccc3[N+](=O)[O-])co2)n1`, the IC50 in experiment [1] was > 79 µM.
Regarding `O=C(Oc1coc(CSc2ncccn2)cc1=O)c1ccc(Br)cc1`, the IC50 in experiment [1] was > 79 µM.
With `Cc1ccnc(SCc2cc(=O)c(OC(=O)c3ccccc3Cl)co2)n1`, the IC50 is > 79 µM in experiment [1] and > 59 µM in experiment [2].
For `O=c1cc(CSc2ccc(F)cc2)occ1O`, the IC50 in experiment [1] and in experiment [2] was > 79 µM throughout.
On to `Cc1ccnc(SCc2cc(=O)c(O)co2)n1`, for which the IC50 in experiment [1] and in experiment [2] was > 79 µM throughout.
`CC(=O)Oc1coc(CSc2nccc(C)n2)cc1=O`: the IC50 in experiment [1] and in experiment [2] was > 79 µM throughout.
As to `Cc1ccnc(SCc2cc(=O)c(OC(=O)c3ccccc3)co2)n1`, the IC50 in experiment [1] and in experiment [2] was > 79 µM each time.
In the case of `Cc1cc(C)nc(SCc2cc(=O)c(OS(=O)(=O)c3ccc([N+](=O)[O-])cc3)co2)n1`, the IC50 in experiment [1] and in experiment [2] was > 79 µM throughout.
Consider `Cc1ccnc(SCc2cc(=O)c(OC(=O)C(C)C)co2)n1`, for which the IC50 in experiment [1] and in experiment [2] was > 79 µM each time.
Regarding `Cc1ccnc(SCc2cc(=O)c(OCc3ccc(Cl)c([N+](=O)[O-])c3)co2)n1`, the IC50 in experiment [1] and in experiment [2] was > 79 µM throughout.
On to `COc1cccc(C(=O)Oc2coc(CSc3nccc(C)n3)cc2=O)c1`, for which the IC50 in experiment [1] and in experiment [2] was > 79 µM in each case.
Take `Cc1ccnc(SCc2cc(=O)c(OC(=O)c3ccc(S(=O)(=O)N4CCCC4)cc3)co2)n1`: the IC50 in experiment [1] is > 79 µM.
Consider `Cc1ccnc(SCc2cc(=O)c(OC(=O)c3ccccc3C)co2)n1`, for which the IC50 in experiment [1] and in experiment [2] was > 79 µM throughout.
With `Cc1ccnc(SCc2cc(=O)c(OC(=O)c3ccsc3)co2)n1`, the IC50 in experiment [1] and in experiment [2] was > 79 µM throughout.
Regarding `O=C(Oc1coc(CSc2ncccn2)cc1=O)c1cccc([N+](=O)[O-])c1`, the IC50 in experiment [1] is > 79 µM.
As to `Cc1ccnc(SCc2cc(=O)c(OC(=O)c3cccc(Cl)c3)co2)n1`, the IC50 in experiment [1] and in experiment [2] was > 79 µM each time.
Turning to `O=C(Oc1coc(CSc2ncccn2)cc1=O)c1ccc(Cl)c([N+](=O)[O-])c1`, in experiment [3], the Ratio IC50 was > 13. Moreover, the IC50 in experiment [1] is > 79 µM.
Consider `Cc1ccnc(SCc2cc(=O)c(OC(=O)c3cccc([N+](=O)[O-])c3)co2)n1`, for which the IC50 in experiment [1] is > 79 µM.
On to `Cc1ccc(C(=O)Oc2coc(CSc3ncccn3)cc2=O)cc1`, for which the IC50 in experiment [1] and in experiment [2] was > 79 µM in each case.
As for `Cc1ccnc(SCc2cc(=O)c(OC(=O)c3ccc(C(F)(F)F)cc3)co2)n1`, the IC50 in experiment [1] is > 79 µM.
